Reference: ChEMBL document CHEMBL1201861, “Genomics of Drug Sensitity in Cancer screening data, Wellcome Trust Sanger Institute”

Tests used:
Test in all cases: cells
COLO-800 = type: functional, cell-based, Homo sapiens; settings: Homo sapiens, COLO-800;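 further: growth inhibition of COLO-800 cells, read out with a cell viability assay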
Description: SANGER: Inhibition of human COLO-800 cell growth in a cell viability assay.

CTV-1 = type: functional, cell-based, Homo sapiens; settings: Homo sapiens, CTV-1;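 further: growth inhibition of the cell line, read out with a cell viability assay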
Description: SANGER: Inhibition of human CTV-1 cell growth in a cell viability assay.

Calu-6 = type: functional, cell-based, Homo sapiens; settings: Homo sapiens, Calu-6;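 further: growth of human Calu-6 cells, read out by a cell viability assay, IC50 marking inhibition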
Description: SANGER: Inhibition of human Calu-6 cell growth in a cell viability assay.

D-502MG = type: functional, cell-based, Homo sapiens; settings: Homo sapiens, D-502MG
Description: SANGER: Inhibition of human D-502MG cell growth in a cell viability assay.

ES6 = type: functional, cell-based, Homo sapiens; settings: Homo sapiens, ES6;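 further: growth inhibition of human ES6 cells, read out with a cell viability assay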
Description: SANGER: Inhibition of human ES6 cell growth in a cell viability assay.

ES8 = type: functional, cell-based, Homo sapiens; settings: Homo sapiens, ES8;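 further: growth inhibition of human ES8 cells, read out with a cell viability assay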
Description: SANGER: Inhibition of human ES8 cell growth in a cell viability assay.

ETK-1 = type: functional, cell-based, Homo sapiens; settings: Homo sapiens, ETK-1;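 further: growth inhibition of human ETK-1 cells, read out with a cell viability assay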
Description: SANGER: Inhibition of human ETK-1 cell growth in a cell viability assay.

EW-1 = type: functional, cell-based, Homo sapiens; settings: Homo sapiens, EW-1;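 further: growth inhibition of the human EW-1 cell line, read out by a cell viability assay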
Description: SANGER: Inhibition of human EW-1 cell growth in a cell viability assay.

EW-3 = type: functional, cell-based, Homo sapiens; settings: Homo sapiens, EW-3;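 further: cell viability assay read-out, IC50 reflects inhibition of growth of the EW-3 cells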
Description: SANGER: Inhibition of human EW-3 cell growth in a cell viability assay.

GCIY = type: functional, cell-based, Homo sapiens; settings: Homo sapiens, GCIY;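 further: growth inhibition of the human GCIY cell line, read out by a cell viability assay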
Description: SANGER: Inhibition of human GCIY cell growth in a cell viability assay.

GI-1 = type: functional, cell-based, Homo sapiens; settings: Homo sapiens, GI-1;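 further: growth inhibition of human GI-1 cells, measured with a cell viability readout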
Description: SANGER: Inhibition of human GI-1 cell growth in a cell viability assay.

GOTO = type: functional, cell-based, Homo sapiens; settings: Homo sapiens, GOTO;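 further: growth inhibition of GOTO cells, read out by a cell viability assay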
Description: SANGER: Inhibition of human GOTO cell growth in a cell viability assay.

GT3TKB = type: functional, cell-based, Homo sapiens; settings: Homo sapiens, GT3TKB;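 further: growth inhibition of the cell line, read out with a cell viability assay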
Description: SANGER: Inhibition of human GT3TKB cell growth in a cell viability assay.

HCC2157 = type: functional, cell-based, Homo sapiens; settings: Homo sapiens, HCC2157;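 further: growth inhibition of the cancer cell line, read out as cell viability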
Description: SANGER: Inhibition of human HCC2157 cell growth in a cell viability assay.

HCE-4 = type: functional, cell-based, Homo sapiens; settings: Homo sapiens, HCE-4;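 further: cell viability assay measuring inhibition of growth in the human HCE-4 cell line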
Description: SANGER: Inhibition of human HCE-4 cell growth in a cell viability assay.

HCE-T = type: functional, cell-based, Homo sapiens; settings: Homo sapiens, HCE-T;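 further: cell viability assay read-out, reporting inhibition of HCE-T cell growth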
Description: SANGER: Inhibition of human HCE-T cell growth in a cell viability assay.

HEL = type: functional, cell-based, Homo sapiens; settings: Homo sapiens, HEL;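 further: growth inhibition of HEL cells, read out with a cell viability assay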
Description: SANGER: Inhibition of human HEL cell growth in a cell viability assay.

KLE = type: functional, cell-based, Homo sapiens; settings: Homo sapiens, KLE;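 further: growth inhibition of human KLE cells, read out with a cell viability assay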
Description: SANGER: Inhibition of human KLE cell growth in a cell viability assay.

KP-N-YS = type: functional, cell-based, Homo sapiens; settings: Homo sapiens, KP-N-YS;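 further: cell viability assay measuring inhibition of cell line growth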
Description: SANGER: Inhibition of human KP-N-YS cell growth in a cell viability assay.

L-428 = type: functional, cell-based, Homo sapiens; settings: Homo sapiens, L-428
Description: SANGER: Inhibition of human L-428 cell growth in a cell viability assay.

LB1047-RCC = type: functional, cell-based, Homo sapiens; settings: Homo sapiens, LB1047-RCC;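 further: inhibition of cell growth, determined with a cell viability assay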
Description: SANGER: Inhibition of human LB1047-RCC cell growth in a cell viability assay.

LU-139 = type: functional, cell-based, Homo sapiens; settings: Homo sapiens, LU-139
Description: SANGER: Inhibition of human LU-139 cell growth in a cell viability assay.

Lu-65 = type: functional, cell-based, Homo sapiens; settings: Homo sapiens, Lu-65;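 further: growth inhibition of Lu-65 cancer cells, read out by a cell viability assay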
Description: SANGER: Inhibition of human LU-65 cell growth in a cell viability assay.

ML-2 = type: functional, cell-based, Homo sapiens; settings: Homo sapiens, ML-2;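 further: growth inhibition of ML-2 cells, measured with a cell viability readout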
Description: SANGER: Inhibition of human ML-2 cell growth in a cell viability assay.

MZ1-PC = type: functional, cell-based, Homo sapiens; settings: Homo sapiens, MZ1-PC;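 further: cell viability assay measuring growth inhibition of human MZ1-PC cells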
Description: SANGER: Inhibition of human MZ1-PC cell growth in a cell viability assay.

NB10 = type: functional, cell-based, Homo sapiens; settings: Homo sapiens, NB10;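 further: growth inhibition of NB10 cells, read out by a cell viability assay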
Description: SANGER: Inhibition of human NB10 cell growth in a cell viability assay.

NB13 = type: functional, cell-based, Homo sapiens; settings: Homo sapiens, NB13;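 further: cell viability readout measuring growth inhibition of human NB13 cells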
Description: SANGER: Inhibition of human NB13 cell growth in a cell viability assay.

NB69 = type: functional, cell-based, Homo sapiens; settings: Homo sapiens, NB69;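 further: growth inhibition of NB69 cells, determined by a cell viability assay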
Description: SANGER: Inhibition of human NB69 cell growth in a cell viability assay.

NCI-H1650 = type: functional, cell-based, Homo sapiens; settings: Homo sapiens, NCI-H1650;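 further: growth inhibition of human NCI-H1650 cells measured by a cell viability assay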
Description: SANGER: Inhibition of human NCI-H1650 cell growth in a cell viability assay.

NCI-H1770 = type: functional, cell-based, Homo sapiens; settings: Homo sapiens, NCI-H1770;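 further: growth inhibition of NCI-H1770 cells determined with a viability readout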
Description: SANGER: Inhibition of human NCI-H1770 cell growth in a cell viability assay.

NCI-H209 = type: functional, cell-based, Homo sapiens; settings: Homo sapiens, NCI-H209;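 further: growth inhibition of human NCI-H209 cells, measured by a cell viability assay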
Description: SANGER: Inhibition of human NCI-H209 cell growth in a cell viability assay.

NCI-H2126 = type: functional, cell-based, Homo sapiens; settings: Homo sapiens, NCI-H2126;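 further: growth inhibition of the cancer cell line, determined with a cell viability readout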
Description: SANGER: Inhibition of human NCI-H2126 cell growth in a cell viability assay.

NCI-H226 = type: functional, cell-based, Homo sapiens; settings: Homo sapiens, NCI-H226;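 further: cell viability read-out used to gauge growth inhibition of the cells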
Description: SANGER: Inhibition of human NCI-H226 cell growth in a cell viability assay.

NCI-H446 = type: functional, cell-based, Homo sapiens; settings: Homo sapiens, NCI-H446;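 further: growth inhibition of NCI-H446 cells determined by a cell viability assay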
Description: SANGER: Inhibition of human NCI-H446 cell growth in a cell viability assay.

NEC8 = type: functional, cell-based, Homo sapiens; settings: Homo sapiens, NEC8;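 further: growth inhibition of human NEC8 cells, read out by a cell viability assay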
Description: SANGER: Inhibition of human NEC8 cell growth in a cell viability assay.

RCC10RGB = type: functional, cell-based, Homo sapiens; settings: Homo sapiens, RCC10RGB;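 further: growth inhibition of human RCC10RGB cells, read out by a cell viability assay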
Description: SANGER: Inhibition of human RCC10RGB cell growth in a cell viability assay.

SCH = type: functional, cell-based, Homo sapiens; settings: Homo sapiens, SCH;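 further: growth inhibition of human SCH cells, read out in a cell viability assay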
Description: SANGER: Inhibition of human SCH cell growth in a cell viability assay.

SF-126 = type: functional, cell-based, Homo sapiens; settings: Homo sapiens, SF-126;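 further: growth inhibition of human SF126 cells, read out with a cell viability assay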
Description: SANGER: Inhibition of human SF126 cell growth in a cell viability assay.

SHP77 = type: functional, cell-based, Homo sapiens, SHP-77; settings: Homo sapiens, SHP77;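 further: growth inhibition of human SHP-77 cells measured by a cell viability assay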
Description: SANGER: Inhibition of human SHP-77 cell growth in a cell viability assay.

SK-LMS-1 = type: functional, cell-based, Homo sapiens; settings: Homo sapiens, SK-LMS-1;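 further: growth inhibition of human SK-LMS-1 cells, read out with a cell viability assay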
Description: SANGER: Inhibition of human SK-LMS-1 cell growth in a cell viability assay.

SK-MEL-1 = type: functional, cell-based, Homo sapiens; settings: Homo sapiens, SK-MEL-1;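 further: growth inhibition of human SK-MEL-1 cells, read out by a cell viability assay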
Description: SANGER: Inhibition of human SK-MEL-1 cell growth in a cell viability assay.

A4-Fuk = type: functional, cell-based, Homo sapiens; settings: Homo sapiens, A4-Fuk;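 further: growth inhibition of A4-Fuk cells, read out by a cell viability assay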
Description: SANGER: Inhibition of human A4-Fuk cell growth in a cell viability assay.

AM-38 = type: functional, cell-based, Homo sapiens; settings: Homo sapiens, AM-38;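 further: growth inhibition of AM-38 cells of human origin, read out by a cell viability assay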
Description: SANGER: Inhibition of human AM-38 cell growth in a cell viability assay.

ATN-1 = type: functional, cell-based, Homo sapiens; settings: Homo sapiens, ATN-1;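 further: growth inhibition of human ATN-1 cells, read out with a cell viability assay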
Description: SANGER: Inhibition of human ATN-1 cell growth in a cell viability assay.

BE-13 = type: functional, cell-based, Homo sapiens; settings: Homo sapiens, BE-13;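 further: growth inhibition of human BE-13 cells, measured with a cell viability assay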
Description: SANGER: Inhibition of human BE-13 cell growth in a cell viability assay.

BV-173 = type: functional, cell-based, Homo sapiens; settings: Homo sapiens, BV-173
Description: SANGER: Inhibition of human BV-173 cell growth in a cell viability assay.

Becker = type: functional, cell-based, Homo sapiens; settings: Homo sapiens, Becker;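 further: growth inhibition of Becker cells, read out with a cell viability assay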
Description: SANGER: Inhibition of human Becker cell growth in a cell viability assay.

TE-12 = type: functional, cell-based, Homo sapiens; settings: Homo sapiens, TE-12;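 further: growth inhibition of TE-12 cells, read out by a cell viability assay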
Description: SANGER: Inhibition of human TE-12 cell growth in a cell viability assay.

`N[C@@H](CSC(c1ccccc1)(c1ccccc1)c1ccccc1)C(=O)O` [S-TRITYL-L-CYSTEINE] was tested, and the IC50 (COLO-800) was over 5120 nM, the IC50 (CTV-1) was 788 nM and the IC50 (Calu-6) was 427 nM. For the same molecule, the IC50 (D-502MG) was over 5120 nM, the IC50 (ES6) was over 5120 nM and the IC50 (ES8) was 432 nM. For the same molecule, the IC50 (ETK-1) was 5040 nM, the IC50 (EW-1) was 1510 nM and the IC50 (EW-3) was 4920 nM. The IC50 (GCIY) was 1820 nM, the IC50 (GI-1) was over 5120 nM and the IC50 (GOTO) was over 5120 nM. It also gave an IC50 (GT3TKB) of 285 nM, an IC50 (HCC2157) of over 5120 nM and an IC50 (HCE-4) of 469 nM. The IC50 (HCE-T) was 2790 nM, the IC50 (HEL) was 2750 nM and the IC50 (KLE) was over 5120 nM. The IC50 (KP-N-YS) was over 5120 nM, the IC50 (L-428) was 3210 nM and the IC50 (LB1047-RCC) was 2600 nM. It also gave an IC50 (LU-139) of 2910 nM, an IC50 (Lu-65) of over 5120 nM and an IC50 (ML-2) of 2090 nM. The IC50 (MZ1-PC) was 1630 nM, the IC50 (NB10) was over 5120 nM and the IC50 (NB13) was 1990 nM. The IC50 (NB69) was 1760 nM, the IC50 (NCI-H1650) was over 5120 nM and the IC50 (NCI-H1770) was over 5120 nM. It also gave an IC50 (NCI-H209) of 4750 nM, an IC50 (NCI-H2126) of 2110 nM and an IC50 (NCI-H226) of over 5120 nM. It also gave an IC50 (NCI-H446) of 2590 nM, an IC50 (NEC8) of 2690 nM and an IC50 (RCC10RGB) of over 5120 nM. For the same molecule, the IC50 (SCH) was 2500 nM, the IC50 (SF-126) was 3010 nM and the IC50 (SHP77) was over 5120 nM. For the same molecule, the IC50 (SK-LMS-1) was over 5120 nM, the IC50 (SK-MEL-1) was over 5120 nM and the IC50 (A4-Fuk) was 453 nM. It also gave an IC50 (AM-38) of over 5120 nM, an IC50 (ATN-1) of 859 nM and an IC50 (BE-13) of 1080 nM. The IC50 (BV-173) was 990 nM, the IC50 (Becker) was 616 nM and the IC50 (TE-12) was over 5120 nM.
For `COc1cc(-c2nn([C@H]3CC[C@H](N4CCN(C(C)=O)CC4)CC3)c3ncnc(N)c23)ccc1NC(=O)c1cc2ccccc2n1C`, the IC50 (COLO-800) was over 5120 nM, the IC50 (CTV-1) was under 20 nM and the IC50 (Calu-6) was over 5120 nM. It also gave an IC50 (D-502MG) of over 5120 nM, an IC50 (ES6) of 1960 nM and an IC50 (ES8) of over 5120 nM. For the same molecule, the IC50 (ETK-1) was 349 nM, the IC50 (EW-1) was over 5120 nM and the IC50 (EW-3) was over 5120 nM. The IC50 (GCIY) was 4030 nM, the IC50 (GI-1) was over 5120 nM and the IC50 (GOTO) was over 5120 nM. The IC50 (GT3TKB) was over 5120 nM, the IC50 (HCC2157) was over 5120 nM and the IC50 (HCE-4) was 2340 nM. The IC50 (HCE-T) was over 5120 nM, the IC50 (HEL) was over 5120 nM and the IC50 (KLE) was 2500 nM. It also gave an IC50 (KP-N-YS) of over 5120 nM, an IC50 (L-428) of over 5120 nM and an IC50 (LB1047-RCC) of 143 nM. For the same molecule, the IC50 (LU-139) was over 5120 nM, the IC50 (Lu-65) was over 5120 nM and the IC50 (ML-2) was over 5120 nM. For the same molecule, the IC50 (MZ1-PC) was 595 nM, the IC50 (NB10) was over 5120 nM and the IC50 (NB13) was over 5120 nM. For the same molecule, the IC50 (NB69) was 3290 nM, the IC50 (NCI-H1650) was over 5120 nM and the IC50 (NCI-H1770) was over 5120 nM. For the same molecule, the IC50 (NCI-H209) was over 5120 nM, the IC50 (NCI-H2126) was over 5120 nM and the IC50 (NCI-H226) was over 5120 nM. For the same molecule, the IC50 (NCI-H446) was over 5120 nM, the IC50 (NEC8) was over 5120 nM and the IC50 (RCC10RGB) was over 5120 nM. It also gave an IC50 (SCH) of over 5120 nM, an IC50 (SF-126) of over 5120 nM and an IC50 (SHP77) of over 5120 nM. For the same molecule, the IC50 (SK-LMS-1) was over 5120 nM, the IC50 (SK-MEL-1) was over 5120 nM and the IC50 (A4-Fuk) was over 5120 nM. The IC50 (AM-38) was over 5120 nM, the IC50 (ATN-1) was over 5120 nM and the IC50 (BE-13) was over 5120 nM. For the same molecule, the IC50 (BV-173) was 345 nM, the IC50 (Becker) was 4210 nM and the IC50 (TE-12) was 404 nM.
Molecule `COc1cc2ncn(-c3cc(OCc4ccccc4C(F)(F)F)c(C(N)=O)s3)c2cc1OC` [GW843682X] has an IC50 (COLO-800) of over 256 nM, an IC50 (CTV-1) of 30.4 nM and an IC50 (Calu-6) of 36.7 nM. The IC50 (D-502MG) was over 256 nM, the IC50 (ES6) was 6.19 nM and the IC50 (ES8) was 10.5 nM. The IC50 (ETK-1) was 17.3 nM, the IC50 (EW-1) was 16.8 nM and the IC50 (EW-3) was 66.3 nM. It also gave an IC50 (GCIY) of 48 nM, an IC50 (GI-1) of 7.3 nM and an IC50 (GOTO) of over 256 nM. It also gave an IC50 (GT3TKB) of 12.3 nM, an IC50 (HCC2157) of over 256 nM and an IC50 (HCE-4) of 13.9 nM. The IC50 (HCE-T) was 217 nM, the IC50 (HEL) was 27.5 nM and the IC50 (KLE) was 213 nM. It also gave an IC50 (KP-N-YS) of 27.2 nM, an IC50 (L-428) of 110 nM and an IC50 (LB1047-RCC) of 25.4 nM. For the same molecule, the IC50 (LU-139) was 65.6 nM, the IC50 (Lu-65) was over 256 nM and the IC50 (ML-2) was 50.3 nM. The IC50 (MZ1-PC) was 22.2 nM, the IC50 (NB10) was over 256 nM and the IC50 (NB13) was 22 nM. The IC50 (NB69) was over 256 nM, the IC50 (NCI-H1650) was over 256 nM and the IC50 (NCI-H1770) was over 256 nM. The IC50 (NCI-H209) was 225 nM, the IC50 (NCI-H2126) was 67.9 nM and the IC50 (NCI-H226) was over 256 nM. It also gave an IC50 (NCI-H446) of 12 nM, an IC50 (NEC8) of 48.7 nM and an IC50 (RCC10RGB) of over 256 nM. The IC50 (SCH) was over 256 nM, the IC50 (SF-126) was 138 nM and the IC50 (SHP77) was 57.3 nM. For the same molecule, the IC50 (SK-LMS-1) was 73.4 nM, the IC50 (SK-MEL-1) was over 256 nM and the IC50 (A4-Fuk) was 20.8 nM. The IC50 (AM-38) was over 256 nM, the IC50 (ATN-1) was 24.1 nM and the IC50 (BE-13) was 11 nM. For the same molecule, the IC50 (BV-173) was 17.7 nM, the IC50 (Becker) was 59.7 nM and the IC50 (TE-12) was 27.3 nM.
